Laboratory results: ChEMBL document CHEMBL4507276 (2021)

How the values were obtained:
Conditions in all cases: Compound concentration 1000.0 nM
[1] = target: Proto-oncogene tyrosine-protein kinase ROS (Homo sapiens) (UniProt P08922)
[2] = target: Serine/threonine-protein kinase PAK 5 (Homo sapiens) (UniProt Q9P286)
[3] = target: TGF-beta receptor type-2 (Homo sapiens) (UniProt P37173)
[4] = target: T1, Ephrin type-A receptor 1 (Homo sapiens) (UniProt P21709)
T1 sequence (whole entry): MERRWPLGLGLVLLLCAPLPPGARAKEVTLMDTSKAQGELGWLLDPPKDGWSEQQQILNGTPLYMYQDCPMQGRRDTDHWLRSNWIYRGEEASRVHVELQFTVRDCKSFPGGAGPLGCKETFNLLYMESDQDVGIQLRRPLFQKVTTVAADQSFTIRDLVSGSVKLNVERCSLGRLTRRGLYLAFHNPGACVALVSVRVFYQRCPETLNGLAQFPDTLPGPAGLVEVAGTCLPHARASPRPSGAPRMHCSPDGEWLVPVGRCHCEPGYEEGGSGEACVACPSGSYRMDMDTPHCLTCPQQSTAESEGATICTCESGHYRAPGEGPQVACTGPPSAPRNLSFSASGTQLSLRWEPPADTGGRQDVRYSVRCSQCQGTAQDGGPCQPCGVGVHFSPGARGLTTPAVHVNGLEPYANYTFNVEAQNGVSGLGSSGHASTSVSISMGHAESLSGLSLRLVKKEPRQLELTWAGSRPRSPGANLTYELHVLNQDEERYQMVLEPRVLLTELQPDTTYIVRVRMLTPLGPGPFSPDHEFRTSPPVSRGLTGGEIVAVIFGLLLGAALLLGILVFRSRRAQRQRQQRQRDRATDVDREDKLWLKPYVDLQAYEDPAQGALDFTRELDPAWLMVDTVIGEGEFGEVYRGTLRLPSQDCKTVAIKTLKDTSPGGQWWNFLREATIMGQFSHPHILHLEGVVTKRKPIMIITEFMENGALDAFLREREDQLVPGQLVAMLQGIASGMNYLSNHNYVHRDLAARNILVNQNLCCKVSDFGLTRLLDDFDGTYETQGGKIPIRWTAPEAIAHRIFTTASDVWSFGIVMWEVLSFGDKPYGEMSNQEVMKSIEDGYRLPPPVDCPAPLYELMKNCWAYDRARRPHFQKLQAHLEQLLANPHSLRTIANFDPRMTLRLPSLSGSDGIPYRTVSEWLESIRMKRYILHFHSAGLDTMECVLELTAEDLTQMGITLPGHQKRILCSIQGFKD

[5] = tested on: Tyrosine-protein kinase ABL1 (Homo sapiens), P00519 [T315I]
[6] = target: Microtubule-associated serine/threonine-protein kinase 1 (Homo sapiens) (UniProt Q9Y2H9)
Sequence of Microtubule-associated serine/threonine-protein kinase 1 (Homo sapiens) (Q9Y2H9 whole entry, looked up): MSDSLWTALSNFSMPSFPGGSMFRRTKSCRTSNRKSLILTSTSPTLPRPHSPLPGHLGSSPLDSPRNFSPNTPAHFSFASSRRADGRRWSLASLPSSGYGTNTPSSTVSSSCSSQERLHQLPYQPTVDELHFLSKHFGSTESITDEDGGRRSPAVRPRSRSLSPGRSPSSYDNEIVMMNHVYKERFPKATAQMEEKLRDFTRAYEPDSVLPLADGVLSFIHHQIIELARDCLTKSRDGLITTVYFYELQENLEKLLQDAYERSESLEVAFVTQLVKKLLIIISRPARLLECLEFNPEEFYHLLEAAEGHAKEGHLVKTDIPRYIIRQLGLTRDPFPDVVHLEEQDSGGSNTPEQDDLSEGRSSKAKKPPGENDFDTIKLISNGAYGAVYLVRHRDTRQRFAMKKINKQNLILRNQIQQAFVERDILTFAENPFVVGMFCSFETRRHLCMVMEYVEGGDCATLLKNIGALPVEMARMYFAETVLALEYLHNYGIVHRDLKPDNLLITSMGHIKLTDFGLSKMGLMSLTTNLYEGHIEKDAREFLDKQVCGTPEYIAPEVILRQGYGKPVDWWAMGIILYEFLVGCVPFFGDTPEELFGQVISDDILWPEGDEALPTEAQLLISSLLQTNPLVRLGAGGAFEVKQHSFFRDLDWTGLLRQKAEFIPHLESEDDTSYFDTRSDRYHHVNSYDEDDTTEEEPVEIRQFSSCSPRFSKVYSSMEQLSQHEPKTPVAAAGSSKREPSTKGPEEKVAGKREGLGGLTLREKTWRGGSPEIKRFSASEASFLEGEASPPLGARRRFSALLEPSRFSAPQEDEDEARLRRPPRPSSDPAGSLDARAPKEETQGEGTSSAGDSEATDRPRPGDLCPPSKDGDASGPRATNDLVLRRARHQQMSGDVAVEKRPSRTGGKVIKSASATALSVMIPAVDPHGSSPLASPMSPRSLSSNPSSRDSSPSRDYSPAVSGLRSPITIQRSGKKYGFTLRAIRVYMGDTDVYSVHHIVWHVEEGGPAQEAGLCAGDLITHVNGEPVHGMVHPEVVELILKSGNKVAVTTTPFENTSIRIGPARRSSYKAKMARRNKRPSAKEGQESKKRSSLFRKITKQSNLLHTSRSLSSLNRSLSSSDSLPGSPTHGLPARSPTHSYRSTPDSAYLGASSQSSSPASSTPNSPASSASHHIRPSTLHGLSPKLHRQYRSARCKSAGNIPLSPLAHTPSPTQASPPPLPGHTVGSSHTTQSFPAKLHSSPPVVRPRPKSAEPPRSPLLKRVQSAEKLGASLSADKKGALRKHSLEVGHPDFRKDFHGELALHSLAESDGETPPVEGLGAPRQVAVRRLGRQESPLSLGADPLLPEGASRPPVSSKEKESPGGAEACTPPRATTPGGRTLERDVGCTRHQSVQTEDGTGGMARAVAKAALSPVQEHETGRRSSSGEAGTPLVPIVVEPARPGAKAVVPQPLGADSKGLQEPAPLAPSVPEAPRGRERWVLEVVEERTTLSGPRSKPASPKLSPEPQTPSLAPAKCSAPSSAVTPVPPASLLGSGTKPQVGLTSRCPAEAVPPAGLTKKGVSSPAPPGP

[7] = target: Tyrosine-protein kinase Yes (Homo sapiens) (UniProt P07947)
[8] = target: T2, Serine/threonine-protein kinase D2 (Homo sapiens) (UniProt Q9BZL6)
T2 sequence (whole entry): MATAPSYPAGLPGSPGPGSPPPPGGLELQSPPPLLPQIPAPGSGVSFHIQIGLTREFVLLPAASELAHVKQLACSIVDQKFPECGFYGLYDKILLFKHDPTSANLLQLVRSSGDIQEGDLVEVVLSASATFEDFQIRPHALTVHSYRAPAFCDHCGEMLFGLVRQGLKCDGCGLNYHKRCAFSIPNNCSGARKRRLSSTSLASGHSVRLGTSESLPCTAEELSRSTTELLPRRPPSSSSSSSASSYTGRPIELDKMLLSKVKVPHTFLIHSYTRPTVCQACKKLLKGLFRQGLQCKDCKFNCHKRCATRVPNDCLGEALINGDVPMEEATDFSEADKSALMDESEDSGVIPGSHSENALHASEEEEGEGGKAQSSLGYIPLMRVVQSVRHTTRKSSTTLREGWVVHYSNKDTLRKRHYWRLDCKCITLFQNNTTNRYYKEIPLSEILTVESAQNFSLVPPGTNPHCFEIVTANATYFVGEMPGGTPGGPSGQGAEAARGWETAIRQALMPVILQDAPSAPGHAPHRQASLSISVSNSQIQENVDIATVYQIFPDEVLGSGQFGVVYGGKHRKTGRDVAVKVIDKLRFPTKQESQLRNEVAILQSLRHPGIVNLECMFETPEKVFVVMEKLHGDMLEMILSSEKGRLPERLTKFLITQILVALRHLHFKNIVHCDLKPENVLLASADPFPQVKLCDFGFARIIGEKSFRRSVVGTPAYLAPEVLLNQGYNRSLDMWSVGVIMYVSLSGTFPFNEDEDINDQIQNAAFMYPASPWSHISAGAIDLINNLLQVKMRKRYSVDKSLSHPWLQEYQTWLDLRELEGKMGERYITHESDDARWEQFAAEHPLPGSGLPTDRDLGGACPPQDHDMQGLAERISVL

[9] = tested on: Epidermal growth factor receptor (Homo sapiens), P00533 [UNDEFINED MUTATION]
[10] = target: Ephrin type-A receptor 2 (Homo sapiens) (UniProt P29317)
Sequence of Ephrin type-A receptor 2 (Homo sapiens) (P29317 whole entry): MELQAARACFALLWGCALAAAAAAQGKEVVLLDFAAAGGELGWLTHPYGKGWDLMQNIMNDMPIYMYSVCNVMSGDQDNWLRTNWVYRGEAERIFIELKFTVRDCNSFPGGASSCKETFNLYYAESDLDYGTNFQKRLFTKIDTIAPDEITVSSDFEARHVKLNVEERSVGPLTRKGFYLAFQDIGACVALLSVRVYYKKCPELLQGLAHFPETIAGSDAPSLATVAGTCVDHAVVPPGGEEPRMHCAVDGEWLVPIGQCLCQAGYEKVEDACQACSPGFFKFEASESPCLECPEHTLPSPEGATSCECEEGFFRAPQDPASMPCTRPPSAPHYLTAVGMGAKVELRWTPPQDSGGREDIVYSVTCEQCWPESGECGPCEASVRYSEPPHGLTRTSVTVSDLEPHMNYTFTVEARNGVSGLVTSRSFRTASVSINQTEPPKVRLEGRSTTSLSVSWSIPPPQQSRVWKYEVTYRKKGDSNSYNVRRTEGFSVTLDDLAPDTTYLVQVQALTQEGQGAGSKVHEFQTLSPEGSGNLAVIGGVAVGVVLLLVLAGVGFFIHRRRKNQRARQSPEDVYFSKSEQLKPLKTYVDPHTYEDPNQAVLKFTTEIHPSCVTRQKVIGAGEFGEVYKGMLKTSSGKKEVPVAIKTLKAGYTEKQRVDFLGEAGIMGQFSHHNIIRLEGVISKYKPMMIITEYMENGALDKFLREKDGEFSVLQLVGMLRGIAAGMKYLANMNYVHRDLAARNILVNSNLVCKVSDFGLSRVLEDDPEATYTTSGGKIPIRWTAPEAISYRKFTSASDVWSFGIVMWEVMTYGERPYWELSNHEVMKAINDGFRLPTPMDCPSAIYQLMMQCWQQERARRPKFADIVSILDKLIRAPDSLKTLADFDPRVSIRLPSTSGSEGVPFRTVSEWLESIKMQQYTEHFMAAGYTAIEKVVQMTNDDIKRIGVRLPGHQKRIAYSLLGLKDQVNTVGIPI

[11] = target: Protein-tyrosine kinase 2-beta (Homo sapiens) (UniProt Q14289)
[12] = target: Serine/threonine-protein kinase MARK2 (Homo sapiens) (UniProt Q7KZI7)
Sequence of Serine/threonine-protein kinase MARK2 (Homo sapiens) (Q7KZI7 whole entry): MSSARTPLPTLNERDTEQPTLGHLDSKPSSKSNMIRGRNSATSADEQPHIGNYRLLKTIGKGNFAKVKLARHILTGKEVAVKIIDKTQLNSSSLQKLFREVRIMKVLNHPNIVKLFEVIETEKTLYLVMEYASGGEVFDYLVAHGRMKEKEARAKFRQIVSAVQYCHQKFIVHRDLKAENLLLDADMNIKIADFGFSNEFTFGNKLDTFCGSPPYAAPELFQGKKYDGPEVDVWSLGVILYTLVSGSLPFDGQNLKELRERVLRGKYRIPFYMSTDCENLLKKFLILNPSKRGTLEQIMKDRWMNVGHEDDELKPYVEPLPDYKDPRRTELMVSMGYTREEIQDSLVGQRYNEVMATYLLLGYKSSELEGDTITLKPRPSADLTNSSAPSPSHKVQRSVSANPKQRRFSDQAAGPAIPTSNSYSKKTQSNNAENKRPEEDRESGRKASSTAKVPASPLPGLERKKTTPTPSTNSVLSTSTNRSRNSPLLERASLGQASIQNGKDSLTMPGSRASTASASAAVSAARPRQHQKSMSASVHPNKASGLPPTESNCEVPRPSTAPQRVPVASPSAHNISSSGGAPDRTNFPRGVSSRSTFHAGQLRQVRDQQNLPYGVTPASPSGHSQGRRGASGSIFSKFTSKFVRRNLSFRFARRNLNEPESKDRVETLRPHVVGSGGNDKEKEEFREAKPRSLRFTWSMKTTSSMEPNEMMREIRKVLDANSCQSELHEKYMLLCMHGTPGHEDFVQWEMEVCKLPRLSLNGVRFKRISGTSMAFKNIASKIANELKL

[13] = target: Interferon-induced, double-stranded RNA-activated protein kinase (Homo sapiens) (UniProt P19525)
[14] = tested on: Receptor-type tyrosine-protein kinase FLT3 (Homo sapiens), P36888 [N841I]
[15] = target: RAC-beta serine/threonine-protein kinase (Homo sapiens) (UniProt P31751)
Sequence of RAC-beta serine/threonine-protein kinase (Homo sapiens) (P31751 whole entry): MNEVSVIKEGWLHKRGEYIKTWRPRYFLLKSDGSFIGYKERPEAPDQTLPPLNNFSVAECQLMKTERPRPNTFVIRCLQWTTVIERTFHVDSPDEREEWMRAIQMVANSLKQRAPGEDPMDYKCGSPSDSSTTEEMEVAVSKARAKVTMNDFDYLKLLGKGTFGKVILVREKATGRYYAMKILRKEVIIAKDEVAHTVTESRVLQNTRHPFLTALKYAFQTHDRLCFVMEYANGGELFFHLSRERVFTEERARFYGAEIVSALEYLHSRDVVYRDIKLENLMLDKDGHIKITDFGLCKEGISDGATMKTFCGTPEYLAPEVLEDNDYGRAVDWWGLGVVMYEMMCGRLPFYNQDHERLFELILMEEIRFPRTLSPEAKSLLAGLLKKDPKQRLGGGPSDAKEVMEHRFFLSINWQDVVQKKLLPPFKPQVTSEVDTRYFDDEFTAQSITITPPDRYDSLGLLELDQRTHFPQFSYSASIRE

[16] = target: Death-associated protein kinase 1 (Homo sapiens) (UniProt P53355)

Measured: residual activity

Sequence of TGF-beta receptor type-2 (Homo sapiens) (P37173 whole entry): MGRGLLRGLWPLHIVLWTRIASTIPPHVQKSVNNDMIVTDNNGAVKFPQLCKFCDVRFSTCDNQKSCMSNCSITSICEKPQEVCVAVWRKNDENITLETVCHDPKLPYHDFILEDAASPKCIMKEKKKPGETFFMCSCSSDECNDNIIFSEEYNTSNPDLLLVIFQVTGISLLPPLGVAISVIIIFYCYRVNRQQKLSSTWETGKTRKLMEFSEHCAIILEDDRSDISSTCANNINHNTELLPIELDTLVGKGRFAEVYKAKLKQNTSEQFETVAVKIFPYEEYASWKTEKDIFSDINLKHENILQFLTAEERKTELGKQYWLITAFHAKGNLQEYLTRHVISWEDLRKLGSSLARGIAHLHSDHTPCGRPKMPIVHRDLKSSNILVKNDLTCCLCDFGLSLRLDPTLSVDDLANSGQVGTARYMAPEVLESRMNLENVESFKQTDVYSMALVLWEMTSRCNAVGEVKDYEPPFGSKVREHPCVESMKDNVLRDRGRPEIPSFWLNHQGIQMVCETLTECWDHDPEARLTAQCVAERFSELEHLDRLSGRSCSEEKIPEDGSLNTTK
Sequence of Serine/threonine-protein kinase PAK 5 (Homo sapiens) (Q9P286 whole entry, looked up): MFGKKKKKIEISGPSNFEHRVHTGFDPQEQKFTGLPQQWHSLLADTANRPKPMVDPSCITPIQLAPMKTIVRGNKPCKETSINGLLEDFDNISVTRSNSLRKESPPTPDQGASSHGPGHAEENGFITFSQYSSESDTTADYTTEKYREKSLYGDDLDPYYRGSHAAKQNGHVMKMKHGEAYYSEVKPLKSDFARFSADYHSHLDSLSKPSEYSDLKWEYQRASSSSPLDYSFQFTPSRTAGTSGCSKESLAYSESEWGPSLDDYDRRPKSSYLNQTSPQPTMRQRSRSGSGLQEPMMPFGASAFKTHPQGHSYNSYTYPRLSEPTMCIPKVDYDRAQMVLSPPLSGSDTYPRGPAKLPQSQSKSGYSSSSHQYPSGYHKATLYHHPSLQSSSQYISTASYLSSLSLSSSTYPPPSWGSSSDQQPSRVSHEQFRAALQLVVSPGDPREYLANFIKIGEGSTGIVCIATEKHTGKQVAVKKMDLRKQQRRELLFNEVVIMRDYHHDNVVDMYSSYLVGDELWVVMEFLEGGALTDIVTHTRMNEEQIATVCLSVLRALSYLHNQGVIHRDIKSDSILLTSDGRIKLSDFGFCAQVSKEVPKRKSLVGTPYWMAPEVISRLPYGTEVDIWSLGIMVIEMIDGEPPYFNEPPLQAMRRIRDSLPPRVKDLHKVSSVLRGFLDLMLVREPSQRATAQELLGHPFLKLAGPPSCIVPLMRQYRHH

CN(C)C(=O)Cn1cc(-c2nc(C3(c4ccc(-c5cnc(N)nc5)cc4)CC3)no2)cn1 [BI 0153]
inactive: [1] 87% | [2] 88% | [3] 100% | [4] 100% | [5] 100% | [6] 100% | [7] 87% | [8] 89% | [9] 100% | [10] 89% | [11] 90% | [12] 92% | [13] 100% | [14] 100% | [15] 100% | [16] 100%

CN(C)C(=O)Cn1cc(-c2nc([C@@](C)(c3ccc(-c4cnc(N)nc4)cc3)C3CC3)no2)cn1 [BI 665915]
inactive: [1] 88% | [2] 100% | [3] 88% | [4] 97% | [5] 90% | [6] 97% | [7] 94% | [8] 100% | [9] 100% | [10] 100% | [11] 87% | [12] 100% | [13] 100% | [14] 83% | [15] 84% | [16] 82%
